Experiments:
Format in all cases: in vivo
[1] = system: cabbage looper (Trichoplusia ni); test: Insecticidal test for cabbage looper (cabbage leaf-disc dip); conditions: 400 ppm, cabbage leaf-dip, 2nd instar larvae, 5 days
[2] = system: Sweetpotato Whitefly (Bemisia tabacia); test: Insecticidal test for Sweetpotato Whitefly (cotton plant spray); conditions: 200 ppm spray on cotton plants, 13 days, reduction of large nymphs
[3] = system: beet armyworm (Spodoptera exigua); test: Insecticidal test for beet armyworm (treated lepidopteran diet); conditions: 400 ppm, treated diet, second-instar larvae, 5 days
[4] = system: Brown Planthopper (Nilaparvata lugens); test: Insecticidal test for Brown Planthopper (rice seedling roots in test solution); conditions: 10 ppm test solution, rice seedling roots, 3rd instar nymphs, mortality at 6 days
[5] = system: tobacco budworm (Heliothis virescens); test: Insecticidal test for tobacco budworm (cotton cotyledon leaf-disc dip); conditions: 400 ppm, cotton cotyledon leaf-dip, 2nd instar larvae, 5 days
[6] = system: cotton aphid (Aphis gossvpii); test: Insecticidal test for cotton aphid (squash cotyledon spray); conditions: 50 ppm spray on infested squash cotyledons, 3 days, population reduction versus untreated
[7] = system: Green Leafhopper (Nephotettix cincticeps); test: Insecticidal test for Green Leafhopper (rice seedling roots in test solution); conditions: 10 ppm test solution, rice seedling roots, 3rd instar nymphs, mortality at 6 days

Structure (SMILES) | CL: activity at 400 ppm against cabbage looper (% Control rating) [1] | WF: activity at 200 ppm against whitefly (% Control rating) [2] | BAW: activity at 400 ppm against beet armyworm (% Control rating) [3] | BPH: activity at 10 ppm against brown planthopper (% Control rating) [4] | TBW: activity at 400 ppm against tobacco budworm (% Control rating) [5] | CA: activity at 50 ppm against cotton aphid (% Control rating) [6] | GLH: activity at 10 ppm against green leafbopper (% Control rating) [7] | pest or weed control at 50 ppm ([6]; 72 h, read-out: CA: activity at 50 ppm against cotton aphid (% Control rating)) [%] | pest or weed control at 400 ppm ([1]; Trichoplusia ni, 120 h, read-out: CL: activity at 400 ppm against cabbage looper (% Control rating)) [%] | pest or weed control at 200 ppm ([2]; Bemisia, 312 h, read-out: WF: activity at 200 ppm against whitefly (% Control rating)) [%] | pest or weed control at 400 ppm ([3]; Spodoptera exigua, 120 h, read-out: BAW: activity at 400 ppm against beet armyworm (% Control rating)) [%]
Cn1nc(-c2c(F)cccc2Cl)nc1-c1sc(C#Cc2ccccc2F)c(Cl)c1Cl [Compound 9] | A (90-100) | F (less than 50) | B (80-89) | F (less than 50) | A (90-100) |  |  |  |  |  | 
Cn1nc(-c2c(F)cccc2Cl)nc1-c1sc(C#Cc2ccc(F)cc2)c(Cl)c1Cl [Compound 12] | A (90-100) | F (less than 50) | A (90-100) | F (less than 50) |  | C (70-79) | F (less than 50) |  |  |  | 
CCCc1ccc(C#Cc2sc(-c3nc(-c4c(F)cccc4Cl)nn3C)c(Cl)c2Cl)cc1 [Compound 14] | A (90-100) | F (less than 50) | A (90-100) | F (less than 50) | A (90-100) | A (90-100) |  |  |  |  | 
CCCOc1ccc(C#Cc2sc(-c3nc(-c4c(F)cccc4Cl)nn3C)c(Cl)c2Cl)cc1 [Compound 15] | D (60-69) | F (less than 50) | D (60-69) | F (less than 50) | F (less than 50) | D (60-69) | F (less than 50) |  |  |  | 
Cn1nc(-c2c(F)cccc2Cl)nc1-c1sc(C#Cc2ccc(-c3ccccc3)cc2)c(Cl)c1Cl [Compound 16] | D (60-69) | F (less than 50) | F (less than 50) | F (less than 50) |  | F (less than 50) | F (less than 50) |  |  |  | 
Cn1nc(-c2c(F)cccc2Cl)nc1-c1sc(C#Cc2ccc(F)cc2F)c(Cl)c1Cl [Compound 23, 3-(2-chloro-6-fluorophenyl)-5-(5-(2,4-difluorophenylalkynyl)-3,4-dichloro-2-thiophene)-1-methyl-1H-1,2,4-triazole] |  |  |  |  |  |  | F (less than 50) | < 50 | 90 to 100 | < 50 | 90 to 100
Cn1nc(-c2c(F)cccc2Cl)nc1-c1sc(C#Cc2ccsc2)c(Cl)c1Cl [Compound 46] | D (60-69) | F (less than 50) | D (60-69) | F (less than 50) |  | E (50-59) |  |  |  |  | 
Cn1nc(-c2c(F)cccc2Cl)nc1-c1sc(C#Cc2ccc(F)c(C(F)(F)F)c2)c(Cl)c1Cl [Compound 47] | A (90-100) |  | A (90-100) | F (less than 50) | A (90-100) | C (70-79) |  |  |  |  | 
COc1ccc(C#Cc2sc(-c3nc(-c4c(F)cccc4Cl)nn3C)c(Cl)c2Cl)cc1Cl [Compound 48] | A (90-100) |  | A (90-100) | F (less than 50) |  | D (60-69) |  |  |  |  | 

— patent publication US6417187B2, “1,2,4-triazole based compounds that can be used as insecticides or acaricides and processes” (Dow AgroSciences LLC, priority 2000, dated 2002)
